Test results published in patent publication US20210300940A1 (Merck Patent GmbH, priority 2018, published 2021).

Assays:
[1] = biological target: T1, TLR7 (Homo sapiens, UniProt Q9NYK1); assay: HEK/293 TLR7 Cell Assay; type: cell-based; settings: TLR7/NFKb HEK cells, R848 agonist 10 uM final concentration, Steady-Glo readout; read-out: TLR7 potency
T1 construct: expressed in transfected cells; host or cells: HEK/293 cells carrying TLR7 and an NF-kB luciferase reporter
T1 sequence (Q9NYK1 27-1049): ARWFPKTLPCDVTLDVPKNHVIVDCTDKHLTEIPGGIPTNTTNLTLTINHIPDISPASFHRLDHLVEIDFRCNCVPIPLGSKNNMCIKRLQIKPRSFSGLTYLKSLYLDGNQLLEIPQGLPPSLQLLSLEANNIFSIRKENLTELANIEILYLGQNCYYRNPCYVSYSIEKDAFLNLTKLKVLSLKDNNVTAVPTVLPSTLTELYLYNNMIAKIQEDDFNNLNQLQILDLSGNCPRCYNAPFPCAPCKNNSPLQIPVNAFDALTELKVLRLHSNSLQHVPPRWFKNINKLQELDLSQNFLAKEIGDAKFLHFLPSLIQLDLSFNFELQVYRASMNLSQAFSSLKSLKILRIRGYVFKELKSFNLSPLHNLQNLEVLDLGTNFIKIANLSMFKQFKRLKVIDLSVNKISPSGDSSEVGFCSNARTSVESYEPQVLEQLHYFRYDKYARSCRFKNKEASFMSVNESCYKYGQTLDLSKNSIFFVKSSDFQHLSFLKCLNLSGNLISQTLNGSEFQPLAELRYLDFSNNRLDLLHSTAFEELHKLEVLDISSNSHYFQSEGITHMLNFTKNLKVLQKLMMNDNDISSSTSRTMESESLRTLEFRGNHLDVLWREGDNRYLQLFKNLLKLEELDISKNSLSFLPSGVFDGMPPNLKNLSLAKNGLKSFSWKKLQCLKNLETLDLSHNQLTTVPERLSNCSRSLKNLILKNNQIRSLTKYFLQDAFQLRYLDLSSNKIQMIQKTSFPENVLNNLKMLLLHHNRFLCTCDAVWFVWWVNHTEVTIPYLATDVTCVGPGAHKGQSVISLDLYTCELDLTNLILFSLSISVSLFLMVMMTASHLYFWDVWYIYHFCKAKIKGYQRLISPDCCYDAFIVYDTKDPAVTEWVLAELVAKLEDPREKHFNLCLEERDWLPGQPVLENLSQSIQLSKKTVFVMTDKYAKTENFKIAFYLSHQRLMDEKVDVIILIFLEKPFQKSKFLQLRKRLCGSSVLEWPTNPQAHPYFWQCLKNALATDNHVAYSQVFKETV
Procedure, shortened: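 TLR7/NF-κB reporter HEK293 cells, 5000/well, cultured 24 h, then preincubated 30 min with compound before R848 agonist (10 uM final). After 5 h stimulation, Steady-Glo luciferase luminescence read.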

[2] = biological target: T2, TLR8 (Homo sapiens, UniProt Q9NR97); assay: HEK/293 TLR8 Cell Assay; type: cell-based; settings: HEK cells, R848 agonist 30 uM final concentration, Steady-Glo readout; read-out: TLR8 potency
T2 construct: expressed in transfected cells; host or cells: HEK/293 reporter cells (NF-kB luciferase)
T2 sequence (Q9NR97 27-1041): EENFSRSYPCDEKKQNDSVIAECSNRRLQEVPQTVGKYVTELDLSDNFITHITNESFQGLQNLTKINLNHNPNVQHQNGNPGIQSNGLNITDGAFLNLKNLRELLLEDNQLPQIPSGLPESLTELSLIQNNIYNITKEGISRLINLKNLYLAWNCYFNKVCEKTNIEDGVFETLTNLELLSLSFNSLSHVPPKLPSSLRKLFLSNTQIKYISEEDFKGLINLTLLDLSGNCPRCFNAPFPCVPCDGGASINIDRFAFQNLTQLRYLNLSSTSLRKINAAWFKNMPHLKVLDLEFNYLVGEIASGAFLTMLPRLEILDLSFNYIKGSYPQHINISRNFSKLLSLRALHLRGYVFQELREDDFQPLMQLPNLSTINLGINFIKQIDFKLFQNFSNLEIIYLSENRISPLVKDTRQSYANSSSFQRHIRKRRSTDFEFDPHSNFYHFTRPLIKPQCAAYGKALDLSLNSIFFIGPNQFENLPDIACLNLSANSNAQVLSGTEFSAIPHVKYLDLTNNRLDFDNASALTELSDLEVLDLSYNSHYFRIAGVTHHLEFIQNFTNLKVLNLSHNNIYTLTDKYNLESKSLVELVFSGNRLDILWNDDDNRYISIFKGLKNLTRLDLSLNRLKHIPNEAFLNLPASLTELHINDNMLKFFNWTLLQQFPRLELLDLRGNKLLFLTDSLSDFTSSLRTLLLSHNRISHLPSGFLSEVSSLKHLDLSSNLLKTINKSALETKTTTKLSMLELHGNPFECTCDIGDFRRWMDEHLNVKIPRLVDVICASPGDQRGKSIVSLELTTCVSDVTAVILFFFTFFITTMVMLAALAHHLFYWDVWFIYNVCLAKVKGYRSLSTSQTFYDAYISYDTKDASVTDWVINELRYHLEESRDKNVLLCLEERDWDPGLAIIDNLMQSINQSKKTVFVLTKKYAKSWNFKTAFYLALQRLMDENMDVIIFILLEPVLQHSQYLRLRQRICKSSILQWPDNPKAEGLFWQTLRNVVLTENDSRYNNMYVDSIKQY

Structure (SMILES) | IC50 [1] | IC50 [2]
C[C@@H]1CN(c2ccc(C#N)c3nccnc23)C[C@H](C(=O)NC2CCNCC2(F)F)O1 (stereo partly drawn) [Example 289, (2R,6R)-4-(8-Cyano-quinoxalin-5-yl)-6-methyl-morpholine-2-carboxylic acid (3,3-difluoro-piperidin-4-yl)-amide] | < 75 nM | < 75 nM
N#Cc1ccc(N2C[C@@H](C(=O)NC[C@]3(F)CCNC3)O[C@@H](C(F)(F)F)C2)c2nccnc12 (single isomer, unassigned) [Example 310] | < 75 nM | < 75 nM
C[C@H]1C[C@@H](NC(=O)[C@H](C)N2CCN(C)CC2)CN(c2ccc(C(F)(F)F)c3ncccc23)C1 (single isomer, unassigned) [Example 93] | < 75 nM | < 75 nM
C[C@H]1C[C@@H](NCCNS(C)(=O)=O)CN(c2ccc(C#N)c3nccnc23)C1 [Example 41, N-{2-[(3R,5S)-1-(8-Cyano-quinoxalin-5-yl)-5-methyl-piperidin-3-ylamino]-ethyl}-methanesulfonamide] | < 75 nM | < 75 nM
C[C@H]1C[C@@H](NC(=O)[C@H](C)N2CCN(C)CC2)CN(c2ccc(C#N)c3nccnc23)C1 (single isomer, unassigned) [Example 91] | < 75 nM | < 75 nM
CN1CCC(O)(CC(=O)N[C@@H]2C[C@H](C(F)(F)F)CN(c3ccc(C#N)c4nccnc34)C2)CC1 [Example 76, N-[(3R,5S)-1-(8-cyanoquinoxalin-5-yl)-5-(trifluoromethyl)piperidin-3-yl]-2-(4-hydroxy-1-methylpiperidin-4-yl)acetamide] | 75 to 150 nM | < 75 nM
C[C@H]1C[C@@H](NCCC(C)(C)O)CN(c2ccc(C(F)(F)F)c3ncccc23)C1 [Example 33, 2-Methyl-4-[(3R,5S)-5-methyl-1-(8-trifluoromethyl-quinolin-5-yl)-piperidin-3-ylamino]-butan-2-ol] | < 75 nM | < 75 nM
C[C@@H](O)CNC(=O)[C@H]1CN(c2ccc(C#N)c3nccnc23)C[C@@H](C(F)(F)F)O1 (single isomer, unassigned) [Example 278] | > 150 nM | > 150 nM
CC(C(=O)N[C@@H]1C[C@H](C)CN(c2ccc(C#N)c3nccnc23)C1)N1CCC(O)CC1 (single isomer, unassigned) [Example 102] | < 75 nM | < 75 nM
C[C@H](O)CNC(=O)[C@@H]1CN(c2ccc(C#N)c3nccnc23)C[C@H](C(F)(F)F)O1 (single isomer, unassigned) [Example 287] | 75 to 150 nM | 75 to 150 nM
N#Cc1ccc(N2C[C@H](NCC3CCCNC3)C[C@H](C(F)(F)F)C2)c2cccnc12 (stereo partly drawn) [Example 152, 5-{(3R,5S)-3-[(Piperidin-3-ylmethyl)-amino]-5-trifluoromethyl-piperidin-1-yl}-quinoline-8-carbonitrile] | 75 to 150 nM | 75 to 150 nM
C[C@@H]1CN(c2ccc(C#N)c3nccnc23)C[C@H](C(=O)NC[C@@H](C)O)O1 [Example 238, (2R,6R)-4-(8-Cyano-quinoxalin-5-yl)-6-methyl-morpholine-2-carboxylic acid ((R)-2-hydroxy-propyl)-amide] | < 75 nM | < 75 nM
C[C@@H]1CN(c2cnc(C#N)c3ncccc23)C[C@H](C(=O)NCC2(F)CCN(C)CC2)O1 [Example 348, (2R,6R)-4-(8-Cyano-[1,7]naphthyridin-5-yl)-6-methyl-morpholine-2-carboxylic acid (4-fluoro-1-methyl-piperidin-4-ylmethyl)-amide] | < 75 nM | > 150 nM
C[C@@H]1CN(c2ccc(C#N)c3nccnc23)C[C@H](C(=O)NCC2CCS(=O)(=O)C2)O1 (stereo partly drawn) [Example 257, (2R,6R)-4-(8-cyanoquinoxalin-5-yl)-N-[(1,1-dioxo-1λ^6-thiolan-3-yl)methyl]-6-methylmorpholine-2-carboxamide] | < 75 nM | < 75 nM
C[C@@H]1CN(c2ccc(C#N)c3nccnc23)C[C@H](C(=O)NCCCS(C)(=O)=O)O1 [Example 260, (2R,6R)-4-(8-cyanoquinoxalin-5-yl)-N-(3-methanesulfonylpropyl)-6-methylmorpholine-2-carboxamide] | 75 to 150 nM | > 150 nM
N#Cc1ccc(N2C[C@@H](CN3CCC4(CC3)CC(=O)N4)O[C@@H](C(F)(F)F)C2)c2nccnc12 (single isomer, unassigned) [Example 364] | < 75 nM | > 150 nM
CC(=O)NCCN[C@@H]1C[C@H](C)CN(c2ccc(C(F)(F)F)c3nccnc23)C1 [Example 25, N-{2-[(3R,5S)-5-Methyl-1-(8-trifluoromethyl-quinoxalin-5-yl)-piperidin-3-ylamino]-ethyl}-acetamide formic acid] | < 75 nM | < 75 nM
C[C@H]1C[C@@H](NC(=O)[C@@H]2C[C@H](O)CN2)CN(c2ccc(C#N)c3nccnc23)C1 [Example 116, (2S,4S)—N-[(3R,5S)-1-(8-cyanoquinoxalin-5-yl)-5-methylpiperidin-3-yl]-4-hydroxypyrrolidine-2-carboxamide] | > 150 nM | < 75 nM
Cc1ccc(N2C[C@@H](C)C[C@@H](n3ccnc3)C2)c2cccnc12 [Example 159, 5-[(3R,5S)-3-(1H-imidazol-1-yl)-5-methylpiperidin-1-yl]-8-methylquinoline] | > 150 nM | < 75 nM
CC(C(=O)N[C@@H]1C[C@H](C)CN(c2ccc(C(F)(F)F)c3ncccc23)C1)N1CCN(C)CC1 (single isomer, unassigned) [Example 92] | < 75 nM | < 75 nM
C[C@H]1C[C@@H](NC(=O)[C@H]2COCCN2)CN(c2ccc(C#N)c3nccnc23)C1 [Example 209, (3R)—N-[(3R,5S)-1-(8-cyanoquinoxalin-5-yl)-5-methylpiperidin-3-yl]morpholine-3-carboxamide] | 75 to 150 nM | < 75 nM
C[C@@H]1CN(c2ccc(C#N)c3nccnc23)C[C@H](C(=O)NCCS(C)(=O)=O)O1 [Example 256, (2R,6R)-4-(8-cyanoquinoxalin-5-yl)-N-(2-methanesulfonylethyl)-6-methyl morpholine-2-carboxamide] | < 75 nM | < 75 nM
N#Cc1ccc(N2C[C@@H](CN3CC(O)C3)O[C@@H](C(F)(F)F)C2)c2nccnc12 (single isomer, unassigned) [Example 362] | < 75 nM | > 150 nM
N#Cc1ccc(N2C[C@H](NC(=O)[C@H]3CCCN3)C[C@H](C(F)(F)F)C2)c2cccnc12 [Example 126, (2R)—N-[(3R,5S)-1-(8-cyanoquinolin-5-yl)-5-(trifluoromethyl)piperidin-3-yl]pyrrolidine-2-carboxamide] | 75 to 150 nM | > 150 nM
